Test results taken from patent publication US20040053270A1, “RNA binding compounds and uses thereof” (priority 2000, published 2004).

Tested on: E. coli ribosomes
Settings: 20 nM competitor, 20 nM oxazolidinone-TAMRA reporter
Experimental: The interaction between oxazolidinone-TAMRA and E. coli ribosomes was monitored by comparing the change in fluorescence anisotropy in the presence and absence of 100 μM non-fluorescent oxazolidinone competitor. Each measurement was made in a 400 μl cuvette, in a Perkin Elmer LS50B fluorimeter. Increasing amounts of ribosomes (corresponding to the amounts shown in FIG. 6) were added to a solution of 20 nM oxazolidinone-TAMRA in the presence of 50 mM Tris.HCl pH 7.5, 70 mM NH4Cl, 30 mM KCl, 7 mM MgCl2, 1 mM DTT, 0.5 mM EDTA. For each titration point an anisotropy measurement was acquired using an excitation wavelength of 554 nm with the excitation slits set to 10 nm and an emission wavelength of 575 nm with the emission slits set to 10 nm.
The same experiment was performed, but using 20 nM non-fluorescent linezolid (an oxazolidinone) as the competitor.

For `CC(=O)NC[C@H]1CN(c2ccc(N3CCOCC3)c(F)c2)C(=O)O1` [linezolid], the “anisotropy upon addition of the ribosomes in the presence of competitor” value was “considerably reduced”.
